Measurements reported in US11229618B2 (Amarin Pharmaceuticals Ireland Limited, priority 2012, dated 2022).

Tested on: subjects with Age-Associated Memory Impairment
Test: AAMI 6-week study: CDR computerized cognitive test battery
Type: in vivo, human
Conditions: for Quality of Episodic Secondary Memory, LS mean difference versus placebo: overall; for Self-Rated Contentment, treatment effects: p<0.001
Protocol: A single-center, 6-week, double-blind, randomizes, parallel-group, placebo-controlled, dose-ranging pilot study was performed to evaluate the efficacy, tolerability, and safety of >96% ethyl-EPA in subjects with subjective and objective memory impairment according to generally accepted criteria for Age-Associated Memory Impairment (“AAMI”). The primary objective of the study was to determine the effect of >96% ethyl-EPA 1 g, 2 g, and 4 g daily, compared to placebo, on cognitive performance in subjects with AAMI.
Ninety-four subjects were randomized into one of six groups: 1 g E-EPA daily (n=23), 2 g E-EPA daily (n=24), 4 g E-EPA daily (n=24), 1 g placebo daily (n=7), 2 g placebo daily (n=8), and 4 g placebo daily (n=8). E-EPA was provided as 500 mg soft gel capsules containing>96% E-EPA and 0.2% dl-α-tocopherol as an antioxidant. Placebo capsules contained 467 mg of liquid paraffin and 0.2% dl-α-tocopherol. Ninety-one subjects completed the study. Two subjects in the 2 g E-EPA group and one subject in the 2 g placebo group discontinued the study.
The study consisted of a screening visit, a training visit, and four study visits. At the screening visit, subjects' eligibility was determined through cognitive tests (verbal paired associated learning [PAL] subscale, vocabulary subtest, Memory Assessment Clinics Questionnaire [MAC-Q], mini mental state evaluation [MMSE] and MINI [mini international neuropsychiatric interview; sections 1 and 2 of Diagnostic and Statistical Manual of Mental Disorders, 4th Edition (DSM-IV) plus dysthymia]), haematology, clinical chemistry and 12-lead electrocardiogram (ECG). At the training visit, subjects were shown how to use the CDR computerized system. Subjects took study drug for 6 weeks and on Days 0, 14, 28 and 42, subjects underwent the CDR cognitive test battery.
A selection of tasks from the CDR computerized cognitive assessment system were administered at Visit 2 (training visit), Visit 3 (baseline), Visit 4 (Day 14), Visit 5 (Day 28) and Visit 6 (Day 42). Parallel forms of the tests were presented at each testing session. All tasks were computer-controlled, the information presented on high resolution monitors, and the responses recorded via a response model containing two buttons: one marked ‘no’ and the other ‘yes’. Five CDR composite scores were used as the primary/secondary outcome variables. The task titles were: • Word Presentation • Immediate Word Recall • Picture Presentation • Simple Reaction Time • Digit Vigilance • Choice Reaction Time • Spatial Working Memory • Numeric Working Memory • Delayed Word Recall • Word Recognition • Picture Recognition • Bond-Lader Visual Analogue Scales of Mood and Alertness • Screen, Using the Computer Mouse
Difference from baseline data for each major variable was evaluated by an Analysis of Covariance (“ANCOVA”) using SAS® PROC MIXED Version 8.2. Fixed effects for treatment, day, time point, treatment by day, treatment by time point, treatment by day by time-point were fitted. Subject within treatment was fitted as a repeated effect using the repeated statement. The compound symmetry covariance structure was used. Subjects' time-matched predose assessments on Day 0 were used as a covariate in the analysis.
Least squares means (LS means) were calculated for treatment by day, treatment by time-point and treatment by day by time-point interaction. This formal analysis was conducted for the ITT and Study PP Populations separately.
A post-hoc analysis compared the individual placebo groups (1 g, 2 g and 4 g paraffin oil) with the corresponding ethyl-EPA doses.

[1] = post-hoc analysis, 1 g, Days 14 and 28

CC/C=C\C/C=C\C/C=C\C/C=C\C/C=C\CCCC(=O)OCC [IPE, all-cis eicosa-5,8,11,14,17-pentaenoic acid ethyl ester]
Continuity of Attention, effect of treatment (ITT): no statistically significant effect of treatment
Quality of Episodic Secondary Memory, effect of treatment (ITT): no statistically significant effect of treatment
Self-Rated Alertness, effect of treatment (ITT): no statistically significant effect of treatment
Self-Rated Calmness, effect of treatment (ITT): no statistically significant effect of treatment
Self-Rated Contentment, LS mean difference to placebo (ITT): no statistically significant effects
Speed of Memory and contributing subtasks, effect of treatment (ITT): no statistically significant effects of treatment
Power of Attention, effect of treatment (ITT, 1, 2, 4 g daily vs placebo): no statistically significant effect of treatment
Immediate Word Recall Accuracy, LS mean difference versus placebo (ITT, 1 g, AM 1, p=0.040): statistically significant decreases
Immediate Word Recall Accuracy, LS mean difference versus placebo (ITT, 1 g, Day 14, p=0.028): statistically significant decreases
Picture Recognition Speed versus placebo (ITT, 1 g, Day 14 at AM 2, p=0.084): trends for benefits
Immediate Word Recall Accuracy, LS mean difference versus placebo (ITT, 1 g, Day 14 at PM 2, p=0.020): statistically significant decreases
Word Recognition Sensitivity Index, LS mean difference versus placebo (ITT, 1 g, Day 28, p=0.024): statistically significant decreases
Picture Recognition Speed versus placebo (ITT, 1 g, Day 28 at AM 1, p=0.085): trends for benefits
Picture Recognition Sensitivity Index, LS mean difference versus placebo (ITT, 1 g, Day 28 at AM 2, p=0.017): statistically significant decrease
Picture Recognition Sensitivity Index, LS mean difference versus placebo (ITT, 1 g, Day 28 at PM 2, p=0.040): statistically significant decrease
Quality of Episodic Secondary Memory, LS mean difference versus placebo (ITT, 1 g, p=0.040): statistically significant decreases
Immediate Word Recall Accuracy, LS mean difference versus placebo (ITT, 2 g, AM 1, p=0.028): statistically significant decreases
Immediate Word Recall Accuracy, LS mean difference versus placebo (ITT, 2 g, Day 28, p=0.017): statistically significant decreases
Self-Rated Alertness, LS mean difference versus placebo (ITT, 2 g, Day 28, p=0.047): statistically significant decrease in ratings
Immediate Word Recall Accuracy, LS mean difference versus placebo (ITT, 2 g, Day 28 at AM 1, p=0.006): statistically significant decreases
Self-Rated Alertness, LS mean difference versus placebo (ITT, 2 g, Day 28 at AM 2, p=0.041): statistically significant decrease in ratings
Quality of Episodic Secondary Memory, LS mean difference versus placebo (ITT, 2 g, p=0.035): statistically significant decreases
Spatial Working Memory Speed, LS mean difference versus placebo (ITT, 4 g, Day 14 at PM 1, p=0.048): statistically significant benefit
Word Recognition Sensitivity Index, LS mean difference versus placebo (ITT, 4 g, Day 28 at PM 2, p=0.030): statistically significant decrease
Word Recognition Sensitivity Index, LS mean difference versus placebo (ITT, 4 g, Day 42, p=0.038): statistically significant decreases
Spatial Working Memory Speed, LS mean difference versus placebo (ITT, 4 g, Day 42 at AM 1, p=0.061): trend for a benefit
Word Recognition Sensitivity Index, LS mean difference versus placebo (ITT, 4 g, PM 2, p=0.045): statistically significant decrease
Self-Rated Contentment, treatment effects (ITT): statistically significant treatment by day interaction
Choice Reaction Time, treatment effects (ITT, p=0.011): statistically significant treatment by day interaction
Spatial Working Memory Sensitivity Index, treatment effects (ITT, p=0.015): statistically significant treatment by day interaction
Quality of Working Memory, treatment effects (ITT, p=0.019): statistically significant treatment by day interaction
Numeric Working Memory Sensitivity Index, treatment effects (ITT, p=0.089): statistical trend for a treatment by day interaction
Continuity of Attention, effect of treatment (Study Per Protocol): no statistically significant effect of treatment
Digit Vigilance Targets Detected, treatment effects (Study Per Protocol, p=0.040): statistically significant treatment by time-point interaction
Power of Attention, effect of treatment (Study Per-Protocol): no statistically significant effect of treatment
Quality of Episodic Secondary Memory, effect of treatment (Study Per-Protocol): no statistically significant effects of treatment
Self-Rated Alertness, effect of treatment (Study Per-Protocol): no statistically significant effect of treatment
Self-Rated Calmness, effect of treatment (Study Per-Protocol): no statistically significant effect of treatment
Self-Rated Contentment, LS mean difference to placebo (Study Per-Protocol): no statistically significant effects
Speed of Memory and contributing subtasks, effect of treatment (Study Per-Protocol): no statistical significant effects of treatment
Immediate Word Recall Accuracy, LS mean difference to placebo (Study Per-Protocol, 1 g, AM 1, p=0.038): statistically significant decreases
Immediate Word Recall Accuracy, LS mean difference to placebo (Study Per-Protocol, 1 g, AM 2, p=0.048): statistically significant decreases
Immediate Word Recall Accuracy, LS mean difference to placebo (Study Per-Protocol, 1 g, Day 14, p=0.024): statistically significant decreases
Immediate Word Recall Accuracy, LS mean difference to placebo (Study Per-Protocol, 1 g, Day 14 at PM 2, p=0.019): statistically significant decreases
Word Recognition Sensitivity Index, LS mean difference to placebo (Study Per-Protocol, 1 g, Day 28, p=0.027): statistically significant decreases
Picture Recognition Sensitivity Index, LS mean difference versus placebo (Study Per-Protocol, 1 g, Day 28 at AM 2, p=0.020): statistically significant decreases
Picture Recognition Sensitivity Index, LS mean difference versus placebo (Study Per-Protocol, 1 g, Day 28 at PM 2, p=0.026): statistically significant decreases
Quality of Episodic Secondary Memory, LS mean difference versus placebo (Study Per-Protocol, 1 g, p=0.043): statistically significant decreases
Immediate Word Recall Accuracy, LS mean difference to placebo (Study Per-Protocol, 2 g, AM 1, p=0.029): statistically significant decreases
Immediate Word Recall Accuracy, LS mean difference to placebo (Study Per-Protocol, 2 g, Day 28, p=0.017): statistically significant decreases
Self-Rated Alertness, LS mean difference versus placebo (Study Per-Protocol, 2 g, Day 28, p=0.035): statistically significant decrease in ratings
Immediate Word Recall Accuracy, LS mean difference to placebo (Study Per-Protocol, 2 g, Day 28 at AM 1, p=0.006): statistically significant decreases
Self-Rated Alertness, LS mean difference versus placebo (Study Per-Protocol, 2 g, Day 28 at AM 2, p=0.033): statistically significant decrease in ratings
Quality of Episodic Secondary Memory, LS mean difference versus placebo (Study Per-Protocol, 2 g, p=0.036): statistically significant decreases
Word Recognition Sensitivity Index, LS mean difference to placebo (Study Per-Protocol, 4 g, Day 42, p=0.038): statistically significant decreases
Self-Rated Calmness, LS mean difference versus placebo (Study Per-Protocol, 4 g, Day 42 at PM 1, p=0.071): statistical trend for an increase in ratings
Self-Rated Contentment, treatment effects (Study Per-Protocol): statistically significant treatment by day interaction
Choice Reaction Time, treatment effects (Study Per-Protocol, p=0.013): statistically significant treatment by day interaction
Spatial Working Memory Sensitivity Index, treatment effects (Study Per-Protocol, p=0.014): statistically significant treatment by day interaction
Quality of Working Memory, treatment effects (Study Per-Protocol, p=0.021): statistically significant treatment by day interaction
Self-Rated Calmness versus corresponding placebo (post-hoc analysis): no differences between active treatment and placebo
Self-rated Alertness versus corresponding placebo [1]: decreases in ratings
Self-rated Contentment versus corresponding placebo [1]: decreases in ratings
Power of Attention versus corresponding placebo (post-hoc analysis, 4 g, Day 42): overall benefit versus the corresponding placebo
Spatial Working Memory Sensitivity Index versus corresponding placebo (post-hoc analysis, 4 g, Day 42, Study PP Population): overall benefit
Simple Reaction Time versus corresponding placebo (post-hoc analysis, 4 g, PM 2 collapsed across days and several time-points on Days 14 and 42): improvements in performance
Choice Reaction Time versus corresponding placebo (post-hoc analysis, 4 g, all study days): overall benefit versus corresponding placebo
subtask measures of Speed of Memory versus corresponding placebo (post-hoc analysis, mostly for 1 g): some signs of improvement in performance
